PMC9143821, “Design and Synthesis of a Novel 4-aryl-N-(2-alkoxythieno [2,3-b]pyrazine-3-yl)-4-arylpiperazine-1-carboxamide DGG200064 Showed Therapeutic Effect on Colon Cancer through G2/M Arrest” (Pharmaceuticals, 2022)

Tested on: HCT116 mouse tumor models
Test: HCT116 xenograft mouse tumor model
Assay type: in vivo, nude BALB/c mice
Settings: 6 days/week, 21 days
Procedure: We tested the inhibition effect by DGG200064 in the HCT116 mouse tumor models (Figure 6a). Cultured HCT116 cells were injected subcutaneously near the scapulae of 6-week-old female nude BALB/c mice. Oral administration of DGG200064 (60, 120 mg/kg) began when tumors reached a volume of 100 mm^3 and proceeded for 6 days/week. […] Mice were then injected intraperitoneally with BrdU and anesthetized 2 h later. They were then perfused with PBS and killed. To identify the level of c-Jun by DGG200064, HCT116 tumors harvested from mice were fixed and analyzed by immunohistochemical staining for Hematoxylin and c-Jun. […]
Xenografts were initiated in female Bagg and Albino (BALB)/c nude mice (6–8 weeks old; n = 18). […] The size of the primary tumors was measured every 2–3 days using calipers. Tumor volume was calculated using the formula, v = (A × B2)/2, where […] is the short diameter (mm). […]
The isolated tumors issued were then stained with antibodies against BrdU (1:700), c-Jun (1:50). […] Endogenous peroxidase activity was blocked with hydrogen peroxide, and background staining was blocked with V block solution, the primary antibodies were detected with horseradish […] (HRP)-conjugated polymer and developed with diaminobenzidine (DAB). […] Positively stained nuclei were counted, and the differences between the groups were analyzed using Student’s t-test, p values ≤0.05 were considered significant.

For `COc1cc(OC)cc(N2CCN(C(=O)Nc3nc4sccc4nc3OC)CC2)c1` [Compound 7c, 4-(3,5-Dimethoxyphenyl)-N-(2-methoxythieno[2,3-b]pyrazin-3-yl)piperazine-1-carboxamide], which “c-Jun expression increase in tumors compared to the control group (IHC)” value (60 mg/kg oral) is on record?
The value was 1.2 fold.

And the “c-Jun expression increase in tumors compared to the control group (IHC)” value (120 mg/kg oral)?
The value was 2 fold.
